In US20240016788A1, “PHARMACEUTICAL COMPOSITION FOR PREVENTING OR TREATING DIABETIC AND POSTMENOPAUSAL OSTEOPOROSIS, CONTAINING ADIPORON” (PnP Biopharm Co., Ltd., priority 2020, published 2024):

Test system: type 2 diabetic db/db mice
Assay: Serum ACP5/TRAP, osteocalcin and urine deoxypyridinoline by ELISA, db/db mice
Assay type: in vivo
Details: adiporon 30 mg/kg/day, 4 weeks
Procedure: A leptin receptor-defective type 2 diabetic animal model (db/db mice) and a normal control group (db/m mice) were used, and the experiment was performed by dividing into 4 groups as follows: non-diabetic control group (dm cont, n=8), non-diabetic adiporon treatment group (dm+AdipoR, n=8), diabetic control group (db cont, n=8) and diabetic adiporon treatment group (db+AdipoR, n=8). The control group was fed a normal diet, and the adiporon treatment group was fed a diet comprising adiporon (30 mg/kg/day) for 4 weeks from 16 weeks of age. During the experiment, body weight was measured every week, fasting blood glucose was measured using an Accu-Chek meter (Roche Diagnostics, St. Louis, MO) every 2 weeks after blood was collected from the tail vein, and glycated hemoglobin (HbA1c) was measured every 4 weeks using a […] automatic analyzer (Bayer healthcare LLC, IN) after blood was collected from the tail vein. The temperature and humidity of the breeding room were maintained at 20˜25° C. and 50˜60%, respectively, and the lights were turned on and off at 12-hour intervals. In both experiments, blood collected from each mouse was allowed to stand at room temperature for 30 minutes, and then centrifuged at 3000 rpm for 15 minutes to obtain serum. Blood levels of tartrate-resistant acid phosphatase (TRAP/ACP5) and osterocalcin concentration were measured by ELISA. In addition, 8-hydroxy-deoxyguanosine, a DNA damage marker caused by oxidative stress, and isoprostane, a marker of oxidative stress caused by lipid peroxidation caused by free fatty acids, and deoxypyridinoline (DPP), which indicates the function of osteoclasts, were measured in 24-hour urine concentrations by ELISA method.

Q: With `Cl.O=C(COc1ccc(C(=O)c2ccccc2)cc1)NC1CCN(Cc2ccccc2)CC1` [adiporon] as the compound, how does the “Decreased serum ACP5/TRAP concentration” value (ELISA) read?
A: Its value is “restored”.

Q: What about the “Decreased serum osteocalcin concentration” value (ELISA) of the same compound?
A: The value was “restored”.

Q: What about the “Increased concentration of deoxypyridinoline in urine” value (P<0.001) of the same compound?
A: The value was “reversed”.
